# Test results: US12649744B2, “N-(pyridin-2-yl)-6,7,8,9-tetrahydro-5h-5,8-epiminocyclohepta[c]pyridine-10-carboxamide derivatives and similar compounds as GPR65 modulators for the treatment of cancer” (PATHIOS THERAPEUTICS LIMITED, priority 2020, dated 2026)
# pIC50: −log10 of the molar value.
# Biological target: human recombinant GPR65 (Homo sapiens, UniProt Q8IYL9)
# Experiment: Human GPR65 cAMP HTRF antagonist assay
# Assay type: cell-based
# Conditions: not given
# Text: The “Human GPR65 cyclic adenosine monophosphate (cAMP) Homogeneous Time Resolved Fluorescence (HTRF) antagonist assay”, or simply “cAMP assay”, as described below, can be used to measure the potency of GPR65 modulators, which is expressed as the concentration of compound required to reduce the increase in cAMP concentration upon GPR65 activation by 50% (i.e. an IC50).
# Human GPR65 Cyclic Adenosine Monophosphate (cAMP) Homogeneous Time Resolved Fluorescence (HTRF) Antagonist Assay Procedure
# IC50 data was obtained by the following procedure:
# 1321N1 human astrocytoma cells stably expressing human recombinant GPR65 (1321N1-hrGPR65 cells, EuroscreenFast) were cultured according to the vendor's instructions.
# Compounds were tested for their ability to antagonise GPR65, through measuring the concentration of cytoplasmic cAMP following treatment of the cells at a pH of 7.2 to activate GPR65 signalling and addition of the compound to be tested. The extent to which the expected rise in cAMP concentration upon GPR65 activation was suppressed by the added compound is indicative of its potency. The assay was carried out according to EuroscreenFast assay methodology as follows.
# On the day of the assay, test compounds were added to 384-well, low volume, white microtiter plates by acoustic dispensing. KRH buffer (5 mM KCl, 1.25 mM MgSO4, 124 mM NaCl, 25 mM HEPES, 13.3 mM Glucose, 1.25 mM KH2PO4 and 1.45 mM CaCl2) was adjusted to pH 6.5, pH 7.6 and pH 8.4 by adding NaOH. 1321N1-hGPR65 cells were rapidly thawed and diluted in KRH, pH 7.6 prior to centrifugation at 300×g for 5 min and resuspension in assay buffer (KRH, pH 7.6, supplemented with 1 mM 3-isobutyl-1-methylxanthine (IBMX) and 200 μM ethylenediaminetetraacetic acid (EDTA)). Cells were added to assay plates at a density of 2,000 cells per well in a volume of 5 μl. Assay plates were briefly centrifuged at 100×g and then incubated at room temperature for 30 min. Cells were stimulated by the addition of 5 μL KRH, pH 6.5, to achieve an assay pH of 7.2, while control wells received 5 μl KRH, pH 8.4 to achieve an assay pH of 7.9. Assay plates were briefly centrifuged at 100×g and then incubated at room temperature for 30 min.
# Accumulation of cAMP was detected by cAMP HTRF kit (Cisbio). d2-labeled cAMP and cryptate-labeled anti-cAMP antibody in Lysis and Detection Buffer (Cisbio) were added to assay plates, and the plates were incubated at room temperature for 1 h. HTRF measurements were performed using a Pherastar FSX instrument. Acceptor and donor emission signals were measured at 665 nm and 620 nm, respectively, and HTRF ratios were calculated as signal665 nm/signal620nm×10^4. Data were normalised to high and low control values and fitted with 4-parameter logistic regression to determine hGPR65 IC50 values for the test compounds, which are shown in Table 1.
# Chain of human recombinant GPR65 (Q8IYL9 whole entry): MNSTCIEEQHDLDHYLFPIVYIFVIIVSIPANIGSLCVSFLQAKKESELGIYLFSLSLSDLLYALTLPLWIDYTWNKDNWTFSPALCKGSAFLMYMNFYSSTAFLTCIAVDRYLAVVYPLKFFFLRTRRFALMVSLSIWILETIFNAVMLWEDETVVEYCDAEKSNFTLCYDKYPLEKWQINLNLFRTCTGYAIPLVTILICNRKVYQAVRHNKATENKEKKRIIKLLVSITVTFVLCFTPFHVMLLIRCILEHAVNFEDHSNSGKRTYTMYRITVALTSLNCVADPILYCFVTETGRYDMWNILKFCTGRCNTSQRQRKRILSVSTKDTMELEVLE
row,Structure (SMILES),pIC50
1,"O=C(Nc1cncc(Cl)c1)N1C2CCC1c1ccnc(F)c1C2 (racemic) [Compound 9, (±)-N-(5-chloropyridin-3-yl)-1-fluoro-6,7,8,9-tetrahydro-5H-5,8-epiminocyclohepta-[c]pyridine-10-carboxamide]",> 6.30
2,"O=C(Nc1cc(Cl)c(Cl)cn1)N1C2CCC1c1c[nH]c(=O)c(F)c1C2 (racemic) [Compound 11, (±)-N-(4,5-dichloropyridin-2-yl)-4-fluoro-3-oxo-3,5,6,7,8,9-hexahydro-2H-6,9-epiminocyclohepta[c]pyridine-10-carboxamide]",> 6.30

# Same assay, conditions: 1321N1-hrGPR65 cells, assay pH of 7.2, cAMP HTRF; read-out: hGPR65 IC50
row,Structure (SMILES),pIC50
1,"O=C(Nc1cnc(C(F)(F)F)cn1)N1C2CCC1c1cncnc1C2 (racemic) [Compound 6, (±)-N-(5-(trifluoromethyl)pyrazin-2-yl)-6,7,8,9-tetrahydro-5H-5,8-epiminocyclohepta-[d]pyrimidine-10-carboxamide]",< 5.30
2,"O=C(Nc1ccc(Oc2ccccc2)nc1)N1C2CCC1c1ccnc(F)c1C2 (racemic) [Compound 8, (±)-1-fluoro-N-(6-phenoxypyridin-3-yl)-6,7,8,9-tetrahydro-5H-5,8-epiminocyclohepta-[c]pyridine-10-carboxamide]",5.30 to 6.30
3,"O=C(Nc1cc(Cl)c(C(F)(F)F)cn1)N1C2CCC1c1cncnc1C2 (racemic) [Compound 28, (±)-N-(4-chloro-5-(trifluoromethyl)pyridin-2-yl)-6,7,8,9-tetrahydro-5H-5,8-epiminocyclo-hepta[d]pyrimidine-10-carboxamide]",5.30 to 6.30
4,"O=C(Nc1cc(Cl)c(C(F)(F)F)cn1)N1[C@H]2CC[C@@H]1c1ccnc(F)c1C2 [Compound 1, (5R,8S)-N-(4-chloro-5-(trifluoromethyl)pyridin-2-yl)-1-fluoro-6,7,8,9-tetrahydro-5H-5,8-epiminocyclohepta[c]pyridine-10-carboxamide]",> 6.30
5,"O=C(Nc1cc(Cl)c(Cl)cn1)N1[C@H]2CC[C@@H]1c1ccnc(F)c1C2 [Compound 2, (5R,8S)-N-(4,5-dichloropyridin-2-yl)-1-fluoro-6,7,8,9-tetrahydro-5H-5,8-epiminocyclohepta[c]pyridine-10-carboxamide]",> 6.30
6,"O=C(Nc1ccc(Cl)c(Cl)n1)N1[C@H]2CC[C@@H]1c1ccnc(F)c1C2 [Compound 3, (5R,8S)-N-(5,6-dichloropyridin-2-yl)-1-fluoro-6,7,8,9-tetrahydro-5H-5,8-epiminocyclohepta[c]pyridine-10-carboxamide]",5.30 to 6.30
7,"O=C(Nc1cc(Cl)c(Cl)cn1)N1[C@H]2CC[C@@H]1c1c[nH]c(=O)cc1C2 [Compound 4, (6S,9R)-N-(4,5-dichloropyridin-2-yl)-3-oxo-3,5,6,7,8,9-hexahydro-2H-6,9-epiminocyclo-hepta[c]pyridine-10-carboxamide]",> 6.30
8,"O=C(Nc1ccc(Cl)c(Cl)n1)N1[C@H]2CC[C@@H]1c1c[nH]c(=O)cc1C2 [Compound 5, (6S,9R)-N-(5,6-dichloropyridin-2-yl)-3-oxo-3,5,6,7,8,9-hexahydro-2H-6,9-epiminocyclo-hepta[c]pyridine-10-carboxamide]",< 5.30
9,"O=C(Nc1ccc2nc(C(F)(F)F)ccc2c1)N1[C@H]2CC[C@@H]1c1c[nH]c(=O)cc1C2 [Compound 10, (6S,9R)-3-oxo-N-(2-(trifluoromethyl)quinolin-6-yl)-3,5,6,7,8,9-hexahydro-2H-6,9-epiminocyclohepta[c]pyridine-10-carboxamide]",> 6.30
10,"O=C(Nc1cnc(Cl)c(Cl)c1)N1[C@H]2CC[C@@H]1c1c[nH]c(=O)cc1C2 [Compound 13, (6S,9R)-N-(5,6-dichloropyridin-3-yl)-3-oxo-3,5,6,7,8,9-hexahydro-2H-6,9-epiminocyclo-hepta[c]pyridine-10-carboxamide]",> 6.30
11,"O=C(Nc1cc(C(F)(F)F)ncc1F)N1[C@H]2CC[C@@H]1c1c[nH]c(=O)cc1C2 [Compound 14, (6S,9R)-N-(5-fluoro-2-(trifluoromethyl)pyridin-4-yl)-3-oxo-3,5,6,7,8,9-hexahydro-2H-6,9-epiminocyclohepta[c]pyridine-10-carboxamide]",5.30 to 6.30
12,"O=C(Nc1cnc(-n2nccn2)c(Cl)c1)N1[C@H]2CC[C@@H]1c1ccnc(F)c1C2 [Compound 15, (5R,8S)-N-(5-chloro-6-(2H-1,2,3-triazol-2-yl)pyridin-3-yl)-1-fluoro-6,7,8,9-tetrahydro-5H-5,8-epiminocyclohepta[c]pyridine-10-carboxamide]",5.30 to 6.30
13,"O=C(Nc1cnc(Cl)cc1F)N1[C@H]2CC[C@@H]1c1ccnc(F)c1C2 [Compound 16, (5R,8S)-N-(6-chloro-4-fluoropyridin-3-yl)-1-fluoro-6,7,8,9-tetrahydro-5H-5,8-epiminocyclohepta[c]pyridine-10-carboxamide]",5.30 to 6.30
14,"O=C(Nc1cc(Cl)c(C(F)(F)F)cn1)N1[C@H]2CC[C@@H]1c1c[nH]c(=O)cc1C2 [Compound 17, (6S,9R)-N-(4-chloro-5-(trifluoromethyl)pyridin-2-yl)-3-oxo-3,5,6,7,8,9-hexahydro-2H-6,9-epiminocyclohepta[c]pyridine-10-carboxamide]",> 6.30
15,"O=C(Nc1cc(C(F)(F)F)ncc1F)N1[C@H]2CC[C@@H]1c1ccnc(F)c1C2 [Compound 18, (5R,8S)-1-fluoro-N-(5-fluoro-2-(trifluoromethyl)pyridin-4-yl)-6,7,8,9-tetrahydro-5H-5,8-epiminocyclohepta[c]pyridine-10-carboxamide]",5.30 to 6.30
16,"O=C(Nc1ccc(C(F)(F)F)cn1)N1[C@H]2CC[C@@H]1c1ccnc(F)c1C2 [Compound 19, (5R,8S)-1-fluoro-N-(5-(trifluoromethyl)pyridin-2-yl)-6,7,8,9-tetrahydro-5H-5,8-epiminocyclohepta[c]pyridine-10-carboxamide]",> 6.30
17,"O=C(Nc1nc(Cl)c(Cl)cc1F)N1[C@H]2CC[C@@H]1c1ccnc(F)c1C2 [Compound 20, (5R,8S)-N-(5,6-dichloro-3-fluoropyridin-2-yl)-1-fluoro-6,7,8,9-tetrahydro-5H-5,8-epiminocyclohepta[c]pyridine-10-carboxamide]",5.30 to 6.30
18,"Cc1nonc1NC(=O)N1[C@H]2CC[C@@H]1c1ccnc(F)c1C2 [Compound 21, (5R,8S)-1-fluoro-N-(4-methyl-1,2,5-oxadiazol-3-yl)-6,7,8,9-tetrahydro-5H-5,8-epiminocyclohepta[c]pyridine-10-carboxamide]",5.30 to 6.30
19,"O=C(Nc1noc(-c2ccccc2)n1)N1[C@H]2CC[C@@H]1c1ccnc(F)c1C2 [Compound 22, (5R,8S)-1-fluoro-N-(5-phenyl-1,2,4-oxadiazol-3-yl)-6,7,8,9-tetrahydro-5H-5,8-epiminocyclohepta[c]pyridine-10-carboxamide]",> 6.30
20,"O=C(Nc1nnc(C(F)(F)F)s1)N1[C@H]2CC[C@@H]1c1ccnc(F)c1C2 [Compound 23, (5R,8S)-1-fluoro-N-(5-(trifluoromethyl)-1,3,4-thiadiazol-2-yl)-6,7,8,9-tetrahydro-5H-5,8-epiminocyclohepta[c]pyridine-10-carboxamide]",> 6.30
21,"O=C(Nc1nnc(-c2ccncc2)s1)N1[C@H]2CC[C@@H]1c1ccnc(F)c1C2 [Compound 24, (5R,8S)-1-fluoro-N-(5-(pyridin-4-yl)-1,3,4-thiadiazol-2-yl)-6,7,8,9-tetrahydro-5H-5,8-epiminocyclohepta[c]pyridine-10-carboxamide]",5.30 to 6.30
22,"O=C(Nc1ncc(C(F)(F)F)cn1)N1[C@H]2CC[C@@H]1c1ccnc(F)c1C2 [Compound 25, (5R,8S)-1-fluoro-N-(5-(trifluoromethyl)pyrimidin-2-yl)-6,7,8,9-tetrahydro-5H-5,8-epiminocyclohepta[c]pyridine-10-carboxamide]",5.30 to 6.30
23,"CCc1nnc(NC(=O)N2[C@H]3CC[C@@H]2c2ccnc(F)c2C3)s1 [Compound 26, (5R,8S)-N-(5-ethyl-1,3,4-thiadiazol-2-yl)-1-fluoro-6,7,8,9-tetrahydro-5H-5,8-epiminocyclohepta[c]pyridine-10-carboxamide]",5.30 to 6.30
24,"O=C(Nc1cc2cn(C(F)F)nc2cn1)N1[C@H]2CC[C@@H]1c1ccnc(F)c1C2 [Compound 27, (5R,8S)-N-(2-(difluoromethyl)-2H-pyrazolo[3,4-c]pyridin-5-yl)-1-fluoro-6,7,8,9-tetrahydro-5H-5,8-epiminocyclohepta[c]pyridine-10-carboxamide]",< 5.30
